Measured values published in ChEMBL document CHEMBL5338810, “Targeting Pancreatic Cancer with Novel Plumbagin Derivatives: Design, Synthesis, Molecular Mechanism, In Vitro and In Vivo Evaluation” (J Med Chem, 2023).
Activity calls are given as the source filed them. The calls are words filed in the database; no cut-off is given here.

What was measured:
PANC-1 [1] = assay: Preferential cytotoxic activity against human PANC-1 cells in nutrient-deprived medium assessed as reduction in cell viability incubated for 24 hrs by WST-8 cell counting analysis; assay type: functional
[2] = Selectivity ratio, ratio of IC50 for cytotoxicity against human PANC-1 cells in Dulbecco's modified Eagle's medium to PC50 for preferential cytotoxic activity against human PANC-1 cells in nutrient-deprived medium; assay type: functional
PANC-1 [3] = assay: Cytotoxicity against human PANC-1 cells in Dulbecco's modified Eagle's medium assessed as reduction in cell viability incubated for 24 hrs by WST-8 cell counting analysis; assay type: functional, cell-based; details: PANC-1, 24 h
MIA PaCa-2 [4] = assay: Antitumor activity against human MIA PaCa-2 cells xenografted in athymic BALB/c-nu mouse assessed as reduction in mean tumor volume at 250 ug, ip administered 5 times per week for 4 weeks and measured on day 18 (reference value: 447 mm3); assay type: functional; details: dose 250 µg
MIA PaCa-2 [5] = assay: Antitumor activity against human MIA PaCa-2 cells xenografted in athymic BALB/c-nu mouse assessed as reduction in average mean wet weight at 250 ug, ip administered 5 times per week for 4 weeks and measured on day 32 (reference value: 465.4 mg); assay type: functional; details: dose 250 µg
[6] = Inhibition of PI3K/Akt/mTOR signaling pathway in human PANC-1 cells in nutrient-deprived medium assessed as redution in Akt phosphorylation at 0.5 to 10 uM incubated for 3 hrs by Western blotting analysis; assay type: cell-based; details: dose 0.5-10 µM
[7] = Toxicity in athymic BALB/c-nu mouse xenografted with human MIA PaCa-2 cells assessed as changes in abdominal organs at 50 to 250 ug, ip administered 5 times per week for 4 weeks; assay type: organism-based; details: in vivo, 672 h, dose 50-250 µg
MIA PaCa-2 [8] = assay: Antitumor activity against human MIA PaCa-2 cells xenografted in athymic BALB/c-nu mouse assessed as reduction in mean tumor volume at 250 ug, ip administered 5 times per week for 4 weeks and measured on day 32 (reference value: 1642 mm3); assay type: functional; details: dose 250 µg
MIA PaCa-2 [9] = assay: Antitumor activity against human MIA PaCa-2 cells xenografted in athymic BALB/c-nu mouse assessed as reduction in blood vessels at 50 to 250 ug, ip administered 5 times per week for 4 weeks; assay type: functional, organism-based; details: dose 50-250 µg
PANC-1 [10] = assay: Disruption of plasma membrane integrity in human PANC-1 cells in nutrient-deprived medium assessed as rupture of the cell membrane by measuring increase in red fluorescence at 1 uM incubated for 24 hrs by dual fluorescent staining based microscopic analysis; assay type: functional
PANC-1 [11] = assay: Disruption of plasma membrane integrity in human PANC-1 cells in nutrient-deprived medium assessed as leakage of cellular contents by measuring increase in red fluorescence at 1 uM incubated for 24 hrs by dual fluorescent staining based microscopic analysis; assay type: functional, cell-based
MIA PaCa-2 [12] = assay: Antitumor activity against human MIA PaCa-2 cells xenografted in athymic BALB/c-nu mouse assessed as reduction in mean tumor volume at 50 ug, ip administered 5 times per week for 4 weeks and measured on day 32 (reference value: 1642 mm3); assay type: functional; details: dose 50 µg
MIA PaCa-2 [13] = assay: Antitumor activity against human MIA PaCa-2 cells xenografted in athymic BALB/c-nu mouse assessed as reduction in average mean wet weight at 50 ug, ip administered 5 times per week for 4 weeks and measured on day 32 (reference value: 465.4 mg); assay type: functional; details: dose 50 µg
[14] = Toxicity in athymic BALB/c-nu mouse xenografted with human MIA PaCa-2 cells assessed as changes in body weight at 50 to 250 ug, ip administered 5 times per week for 4 weeks and measured twice weekly; assay type: organism-based; details: in vivo, 672 h, dose 50-250 µg
[15] = Inhibition of PI3K/Akt/mTOR signaling pathway in human PANC-1 cells in nutrient-deprived medium incubated for 3 to 6 hrs by Western blotting analysis; assay type: cell-based; details: dose 0.5-10 µM, time 3-6 hrs
MIA PaCa-2 [16] = assay: Antitumor activity against human MIA PaCa-2 cells xenografted in athymic BALB/c-nu mouse assessed as reduction in mean tumor volume at 50 ug, ip administered 5 times per week for 4 weeks and measured on day 18 (reference value: 447 mm3); assay type: functional; details: dose 50 µg
[17] = Inhibition of PI3K/Akt/mTOR signaling pathway in human PANC-1 cells in nutrient-deprived medium at 0.5 to 10 uM by Western blotting analysis; assay type: cell-based; details: dose 0.5-10 µM, time 3-6 hrs, TDE = time-dependent effect
PANC-1 [18] = assay: Disruption of plasma membrane integrity in human PANC-1 cells in nutrient-deprived medium assessed as membrane blebs by measuring increase in red fluorescence at 1 uM incubated for 24 hrs by dual fluorescent staining based microscopic analysis; assay type: functional, cell-based
[19] = Toxicity in athymic BALB/c-nu mouse xenografted with human MIA PaCa-2 cells assessed as survival at 50 to 250 ug, ip administered 5 times per week for 4 weeks; assay type: organism-based; details: in vivo, 672 h, dose 50-250 µg
MIA PaCa-2 [20] = assay: Antitumor activity against human MIA PaCa-2 cells xenografted in athymic BALB/c-nu mouse assessed as changes in gross appearance of tumor at 50 to 250 ug, ip administered 5 times per week for 4 weeks; assay type: functional, organism-based; details: dose 50-250 µg
PANC-1 [21] = assay: Disruption of plasma membrane integrity in human PANC-1 cells in nutrient-deprived medium assessed as rounded cell morphology by measuring increase in red fluorescence at 1 uM incubated for 24 hrs by dual fluorescent staining based microscopic analysis; assay type: functional

Row | Structure (SMILES) | PC50 (PANC-1 [1]) [µM] | Ratio [2] | IC50 (PANC-1 [3]) [µM] | other results
1 | O=C1C(CC2CCCC2)=CC(=O)c2c(O)cccc21 | 0.4 | 21 | 8.4 | –
2 | CC1=CC(=O)c2c(O)cccc2C1=O [PLUMBAGIN] | 1.54 | 15.4 | 23.7 | –
3 | O=C1C=C(Cc2cccc(Cl)c2)C(=O)c2ccccc21 | 2.84 | 16.4 | 46.7 | –
4 | O=C1C(CC2CCCCC2)=CC(=O)c2c(O)cccc21 | 0.11 | 429 | 47.2 | Activity (MIA PaCa-2 [4]): 166 mm3; Activity (MIA PaCa-2 [5]): 107.6 mg; inhibition [6]: Active; Activity [7]: Non-Toxic; Activity (MIA PaCa-2 [8]): 446 mm3; Activity (MIA PaCa-2 [9]): Active; Activity (PANC-1 [10]): Active; Activity (PANC-1 [11]): Active; Activity (MIA PaCa-2 [12]): 763 mm3; Activity (MIA PaCa-2 [13]): 205.8 mg; Activity [14]: Non-Toxic; inhibition [15]: Dose-Dependent Effect; Activity (MIA PaCa-2 [16]): 210 mm3; inhibition [17]: Tde; Activity (PANC-1 [18]): Active; Activity [19]: Non-Toxic; Activity (MIA PaCa-2 [20]): Active; Activity (PANC-1 [21]): Active
5 | CCC1=CC(=O)c2ccccc2C1=O | 1.2 | 33.1 | 39.7 | –
6 | Cc1ccc(CC2=CC(=O)c3ccccc3C2=O)cc1 | 4.67 | 16.3 | 76.2 | –
7 | CCC1=CC(=O)c2c(O)cccc2C1=O | 1.46 | 21.6 | 31.6 | –
8 | CCCC1=CC(=O)c2ccccc2C1=O | 3.55 | 11 | 39.1 | –
9 | CCC1=CC(=O)c2cccc(O)c2C1=O | 1.05 | 8.2 | 8.56 | –
10 | CCCC1=CC(=O)c2c(O)cccc2C1=O | 0.45 | 34.7 | 15.6 | –
11 | CC(C)CC1=CC(=O)c2c(O)cccc2C1=O | 0.39 | 33.1 | 12.9 | –
12 | O=C1C(CC2CCCCCC2)=CC(=O)c2c(O)cccc21 | 0.78 | 5.41 | 4.22 | –
13 | O=C1C=C(CC2CCCCC2)C(=O)c2ccccc21 | 0.96 | 69.9 | 66.9 | –
14 | CCC1=CC(=O)c2c(OC)cccc2C1=O | 21.2 | 4.86 | 103 | –
15 | O=C1C=C(CC2CCCCC2)C(=O)c2c(O)cccc21 | 0.74 | 42.9 | 31.9 | –
